Measurements taken from patent publication USRE39591E1, “6-O-substituted ketolides having antibacterial activity” (Abbott Laboratories, priority 1996, dated 2007).

Tested on: up to 32 different microorganisms
Assay: in vitro antibacterial activity (MIC), agar dilution on Brain Heart Infusion (BHI) agar with Steers replicator
Assay type: cell-based
Settings: unit assumed
Method in brief: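 Twelve plates carried successive aqueous dilutions of test compound in BHI agar; inocula were 1:100 dilutions (1:10 for slow growers such as Micrococcus, Streptococcus), incubated 35°-37° C for 20 to 24 hours. MIC was the lowest concentration giving no growth, slight haze, or sparse isolated colonies versus growth control.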

| SMILES | MIC (organism code AA) | MIC (organism code BB) | MIC (organism code CC) | MIC (organism code DD) | MIC (organism code EE) | MIC (organism code FF) | MIC (organism code GG) | MIC (organism code HH) | MIC (organism code II) | MIC (organism code JJ) | MIC (organism code KK) | MIC (organism code LL) | MIC (organism code MM) | MIC (organism code NN) | MIC (organism code OO) | MIC (organism code PP) | MIC (organism code QQ) | MIC (organism code RR) | MIC (organism code SS) | MIC (organism code TT) | also measured |
| --- | --- | --- | --- | --- | --- | --- | --- | --- | --- | --- | --- | --- | --- | --- | --- | --- | --- | --- | --- | --- | --- |
| CCC(=O)OC1C(OC2C(C)C(=O)C(C)C(=O)OC(CC)C3(C)OC(=O)NC3C(C)C(=O)C(C)CC2(C)OCC=Cc2cnc3ccccc3c2)OC(C)CC1N(C)C (stereo not drawn) [Example 244, Compound of Formula (III): R^c is propanoyl, L is CO, T is NH, R is —CH2CH═CH(3-quinolyl)] | 0.1 µg/mL | 0.2 µg/mL | > 100 µg/mL | 0.2 µg/mL | 0.2 µg/mL | 0.1 µg/mL | > 100 µg/mL | 0.2 µg/mL | 0.05 µg/mL | 0.01 µg/mL | ≤ 0.005 µg/mL | 0.02 µg/mL | 1.56 µg/mL | 0.2 µg/mL | 0.02 µg/mL | 0.2 µg/mL | 50 µg/mL | 0.1 µg/mL | 25 µg/mL | > 100 µg/mL | MIC (organism code UU): 0.78 µg/mL; MIC (organism code VV): 0.02 µg/mL; MIC (organism code WW): 2 µg/mL; MIC (organism code XX): 0.03 µg/mL; MIC (organism code YY): 0.03 µg/mL; MIC (organism code ZZ): 64 µg/mL; MIC (organism code ZZA): 0.5 µg/mL |
| C#CCOC1(C)CC(C)C(=O)C(C)C2NC(=O)OC2(C)C(CC)OC(=O)C(C)C(=O)C(C)C1OC1OC(C)CC(N(C)C)C1O (stereo not drawn) [Example 246, Compound of Formula (IX): L is CO, T is NH, R is —CH2CH≡C—H] | 0.78 µg/mL | 0.78 µg/mL | > 100 µg/mL | 0.78 µg/mL | 0.78 µg/mL | 0.78 µg/mL | > 100 µg/mL | 0.78 µg/mL | 0.2 µg/mL | 0.1 µg/mL | 0.2 µg/mL | 0.2 µg/mL | > 100 µg/mL | 0.39 µg/mL | 0.2 µg/mL | 0.78 µg/mL | > 100 µg/mL | 0.78 µg/mL | > 100 µg/mL | > 100 µg/mL | MIC (organism code UU): 50 µg/mL; MIC (organism code VV): 0.78 µg/mL; MIC (organism code WW): 16 µg/mL; MIC (organism code XX): 0.25 µg/mL; MIC (organism code YY): 0.125 µg/mL; MIC (organism code ZZ): > 128 µg/mL; MIC (organism code ZZA): 0.5 µg/mL |
| CCC1OC(=O)C(C)C(=O)C(C)C(OC2OC(C)CC(N(C)C)C2O)C(C)(OCC#Cc2cnc3ccccc3c2)CC(C)C(=O)C(C)C2NC(=O)OC12C (stereo not drawn) [Example 247, Compound of Formula (IX): L is CO, T is NH, R is —CH2—C≡C-(3-quinolyl)] | 0.05 µg/mL | 0.05 µg/mL | > 100 µg/mL | 0.05 µg/mL | 0.05 µg/mL | 0.05 µg/mL | > 100 µg/mL | 0.05 µg/mL | 0.02 µg/mL | ≤ 0.005 µg/mL | 0.01 µg/mL | 0.01 µg/mL | 0.39 µg/mL | 0.1 µg/mL | 0.01 µg/mL | 0.02 µg/mL | 25 µg/mL | 0.2 µg/mL | 25 µg/mL | > 100 µg/mL | MIC (organism code UU): 0.39 µg/mL; MIC (organism code VV): 0.01 µg/mL; MIC (organism code WW): 1 µg/mL; MIC (organism code XX): ≤ 0.004 µg/mL; MIC (organism code YY): ≤ 0.004 µg/mL; MIC (organism code ZZ): 4 µg/mL; MIC (organism code ZZA): 0.25 µg/mL |
| CC[C@H]1OC(=O)[C@H](C)C(=O)[C@H](C)[C@@H](O[C@@H]2O[C@H](C)C[C@H](N(C)C)[C@H]2O)[C@@](C)(OCC#Cc2cnc3ccc([N+](=O)[O-])cc3c2)C[C@@H](C)C(=O)[C@H](C)[C@H]2NC(=O)O[C@@]21C [Example 248, Compound of Formula (IX): L is CO, T is NH, R is —CH2—C≡C-(6-nitro-3-quinolyl)] | 0.05 µg/mL | 0.05 µg/mL | > 100 µg/mL | 0.05 µg/mL | 0.05 µg/mL | 0.02 µg/mL | > 100 µg/mL | 0.05 µg/mL | 0.02 µg/mL | 0.02 µg/mL | ≤ 0.005 µg/mL | ≤ 0.005 µg/mL | 0.39 µg/mL | 0.1 µg/mL | 0.02 µg/mL | 0.1 µg/mL | 50 µg/mL | 0.39 µg/mL | 50 µg/mL | > 100 µg/mL | MIC (organism code UU): 0.39 µg/mL; MIC (organism code VV): 0.02 µg/mL; MIC (organism code WW): 3 µg/mL; MIC (organism code XX): 0.03 µg/mL; MIC (organism code YY): 0.03 µg/mL; MIC (organism code ZZ): 4 µg/mL; MIC (organism code ZZA): 0.25 µg/mL |
| CC[C@H]1OC(=O)[C@H](C)C(=O)[C@H](C)[C@@H](O[C@@H]2O[C@H](C)C[C@H](N(C)C)[C@H]2O)[C@@](C)(OCC#Cc2ccccc2)C[C@@H](C)C(=O)[C@H](C)[C@H]2NC(=O)O[C@@]21C [Example 249, Compound of Formula (IX): L is CO, T is NH, R is —CH2—C≡C-phenyl] | 0.1 µg/mL | 0.1 µg/mL | > 100 µg/mL | 0.2 µg/mL | 0.2 µg/mL | 0.1 µg/mL | > 100 µg/mL | 0.1 µg/mL | 0.05 µg/mL | 0.01 µg/mL | 0.02 µg/mL | 0.02 µg/mL | 100 µg/mL | 0.1 µg/mL | 0.01 µg/mL | 0.1 µg/mL | 100 µg/mL | 0.39 µg/mL | > 100 µg/mL | > 100 µg/mL | MIC (organism code UU): 0.39 µg/mL; MIC (organism code VV): 0.1 µg/mL; MIC (organism code WW): 4 µg/mL; MIC (organism code XX): 0.03 µg/mL; MIC (organism code YY): 0.03 µg/mL; MIC (organism code ZZ): > 128 µg/mL; MIC (organism code ZZA): 0.25 µg/mL |
| CC[C@H]1OC(=O)[C@H](C)C(=O)[C@H](C)[C@@H](O[C@@H]2O[C@H](C)C[C@H](N(C)C)[C@H]2O)[C@@](C)(OCC#Cc2ccc3ccccc3c2)C[C@@H](C)C(=O)[C@H](C)[C@H]2NC(=O)O[C@@]21C [Example 251, Compound of Formula (IX): L is CO, T is NH, R is —CH2—C≡C-(2-naphthyl)] | 0.1 µg/mL | 0.1 µg/mL | > 100 µg/mL | 0.1 µg/mL | 0.1 µg/mL | 0.1 µg/mL | > 100 µg/mL | 0.1 µg/mL | 0.1 µg/mL | 0.02 µg/mL | 0.05 µg/mL | 0.05 µg/mL | 6.2 µg/mL | 0.2 µg/mL | 0.02 µg/mL | 0.2 µg/mL | > 100 µg/mL | 1.56 µg/mL | > 100 µg/mL | > 100 µg/mL | MIC (organism code UU): 0.2 µg/mL; MIC (organism code VV): 0.05 µg/mL; MIC (organism code WW): 16 µg/mL; MIC (organism code XX): 0.125 µg/mL; MIC (organism code YY): 0.25 µg/mL; MIC (organism code ZZ): > 128 µg/mL; MIC (organism code ZZA): 1 µg/mL |
| CC[C@H]1OC(=O)[C@H](C)C(=O)[C@H](C)[C@@H](O[C@@H]2O[C@H](C)C[C@H](N(C)C)[C@H]2O)[C@@](C)(OCC#Cc2ccc3cc(OC)ccc3c2)C[C@@H](C)C(=O)[C@H](C)[C@H]2NC(=O)O[C@@]21C [Example 252, Compound of Formula (IX): L is CO, T is NH, R is —CH2—C≡C-(6-methoxy-2-naphthyl)] | 0.1 µg/mL | 0.1 µg/mL | > 100 µg/mL | 0.1 µg/mL | 0.1 µg/mL | 0.1 µg/mL | > 100 µg/mL | 0.1 µg/mL | 0.05 µg/mL | 0.002 µg/mL | 0.02 µg/mL | 0.05 µg/mL | 3.1 µg/mL | 0.1 µg/mL | 0.02 µg/mL | 0.2 µg/mL | > 100 µg/mL | 0.78 µg/mL | > 100 µg/mL | > 100 µg/mL | MIC (organism code UU): 0.2 µg/mL; MIC (organism code VV): 0.05 µg/mL; MIC (organism code WW): 2 µg/mL; MIC (organism code XX): 0.03 µg/mL; MIC (organism code YY): 0.03 µg/mL; MIC (organism code ZZ): 4 µg/mL; MIC (organism code ZZA): 0.25 µg/mL |
| CC[C@H]1OC(=O)[C@H](C)C(=O)[C@H](C)[C@@H](O[C@@H]2O[C@H](C)C[C@H](N(C)C)[C@H]2O)[C@@](C)(OCC#Cc2ccc3cc(Cl)ccc3c2)C[C@@H](C)C(=O)[C@H](C)[C@H]2NC(=O)O[C@@]21C [Example 253, Compound of Formula (IX): L is CO, T is NH, R is —CH2—C≡C-(6-chloro-2-naphthyl)] | 0.05 µg/mL | 0.05 µg/mL | > 100 µg/mL | 0.05 µg/mL | 0.1 µg/mL | 0.05 µg/mL | > 100 µg/mL | 0.05 µg/mL | 0.05 µg/mL | 0.02 µg/mL | 0.02 µg/mL | 0.01 µg/mL | 0.78 µg/mL | 0.05 µg/mL | 0.01 µg/mL | 0.1 µg/mL | 50 µg/mL | 0.3 µg/mL | 50 µg/mL | > 100 µg/mL | MIC (organism code UU): 0.2 µg/mL; MIC (organism code VV): 0.02 µg/mL; MIC (organism code WW): 2 µg/mL; MIC (organism code XX): 0.015 µg/mL; MIC (organism code YY): 0.03 µg/mL; MIC (organism code ZZ): 1 µg/mL; MIC (organism code ZZA): 0.25 µg/mL |
| CC[C@H]1OC(=O)[C@H](C)C(=O)[C@H](C)[C@@H](O[C@@H]2O[C@H](C)C[C@H](N(C)C)[C@H]2O)[C@@](C)(OCC#Cc2ccc3ncccc3c2)C[C@@H](C)C(=O)[C@H](C)[C@H]2NC(=O)O[C@@]21C [Example 254, Compound of Formula (IX): L is CO, T is NH, R is —CH2—C≡C-(6-quinolyl)] | 0.1 µg/mL | 0.1 µg/mL | > 100 µg/mL | 0.1 µg/mL | 0.1 µg/mL | 0.1 µg/mL | > 100 µg/mL | 0.1 µg/mL | 0.02 µg/mL | ≤ 0.005 µg/mL | 0.01 µg/mL | 0.01 µg/mL | 0.78 µg/mL | 0.1 µg/mL | 0.02 µg/mL | 0.1 µg/mL | 25 µg/mL | 0.2 µg/mL | 100 µg/mL | > 100 µg/mL | MIC (organism code UU): 0.78 µg/mL; MIC (organism code VV): 0.01 µg/mL; MIC (organism code WW): 2 µg/mL; MIC (organism code XX): ≤ 0.004 µg/mL; MIC (organism code YY): ≤ 0.004 µg/mL; MIC (organism code ZZ): 2 µg/mL; MIC (organism code ZZA): 0.25 µg/mL |
